Test results reported in US9556190B2, “Piperidinyloxy lactone orexin receptor antagonists” (MERCK SHARP & DOHME CORP., priority 2013, dated 2017).

Experiments:
[1] = molecular target: human orexin-2 receptor (Homo sapiens (Human), UniProt O43614); test: FLIPR Ca2+ Flux Assay, CHO cells expressing orexin-2 receptor; format: cell-based; settings: 70 pM Ala-6,12 orexin-A agonist, read-out: hOX2R FLIPR IC50
Description: The utility of the compounds in accordance with the present invention as orexin receptor OX1R and/or OX2R antagonists may be readily determined without undue experimentation by methodology well known in the art, including the “FLIPR Ca^2+ Flux Assay” (Okumura et al., Biochem. Biophys. Res. Comm. 280:976-981, 2001). In a typical experiment the OX1 and OX2 receptor antagonistic activity of the compounds of the present invention was determined in accordance with the following experimental method. For intracellular calcium measurements, Chinese hamster ovary (CHO) cells expressing the rat orexin-1 receptor or the human orexin-2 receptor, are grown in Iscove's modified DMEM containing 2 mM L-glutamine, […], 1% hypoxanthine-thymidine supplement, 100 U/ml penicillin, 100 μg/ml streptomycin and 10% heat-inactivated fetal calf serum (FCS). The cells are seeded at 20,000 cells/well into Becton-Dickinson black 384-well clear bottom sterile plates coated with poly-D-lysine. All reagents were from GIBCO-Invitrogen Corp. The seeded plates are incubated overnight at 37° C. and 5% CO2. Ala-6,12 human orexin-A as the agonist is prepared as a 1 mM stock solution in 1% bovine serum albumin (BSA) and diluted in assay buffer (HBSS containing 20 mM HEPES, 0.1% BSA and 2.5 mM probenecid, pH7.4) for use in the assay at a final concentration of 70 pM. Test compounds are prepared as 10 mM stock solution in DMSO, then diluted in 384-well plates, first in DMSO, then assay buffer. On the day of the assay, cells are washed 3 times with 100 μl assay buffer and then incubated for 60 min (37° C., 5% CO2) in 60 μl assay buffer containing 1 μM Fluo-4AM ester, 0.02% pluronic acid, and 1% BSA. The dye loading solution is then aspirated and cells are washed 3 times with 100 μl assay buffer. 30 μl of that same buffer is left in each well. Within the Fluorescent Imaging Plate Reader (FLIPR, Molecular Devices), test compounds are added to the plate in a volume of 25 μl, incubated for 5 min and finally 25 μl of agonist is added. Fluorescence is measured for each well at 1 second intervals for 5 minutes and the height of each fluorescence peak is compared to the height of the fluorescence peak induced by 70 pM Ala-6,12 orexin-A with buffer in place of antagonist. For each antagonist, IC50 value (the concentration of compound needed to inhibit 50% of the agonist response) is determined. Alternatively, compound potency can be assessed by a radioligand binding assay (described in Bergman et. al. Bioorg. Med. Chem. Lett. 2008, 18, 1425-1430) in which the inhibition constant (Ki) is determined in membranes prepared from CHO cells expressing either the OX1 or OX2 receptor. The intrinsic orexin receptor antagonist activity of a compound which may be used in the present invention may be determined by these assays.

[2] = molecular target: hOX1R (Homo sapiens, UniProt O43613); test: FLIPR Ca2+ Flux Assay, CHO cells expressing orexin-1 receptor; format: cell-based; settings: 70 pM Ala-6,12 orexin-A agonist

Chain of human orexin-2 receptor (O43614 whole entry): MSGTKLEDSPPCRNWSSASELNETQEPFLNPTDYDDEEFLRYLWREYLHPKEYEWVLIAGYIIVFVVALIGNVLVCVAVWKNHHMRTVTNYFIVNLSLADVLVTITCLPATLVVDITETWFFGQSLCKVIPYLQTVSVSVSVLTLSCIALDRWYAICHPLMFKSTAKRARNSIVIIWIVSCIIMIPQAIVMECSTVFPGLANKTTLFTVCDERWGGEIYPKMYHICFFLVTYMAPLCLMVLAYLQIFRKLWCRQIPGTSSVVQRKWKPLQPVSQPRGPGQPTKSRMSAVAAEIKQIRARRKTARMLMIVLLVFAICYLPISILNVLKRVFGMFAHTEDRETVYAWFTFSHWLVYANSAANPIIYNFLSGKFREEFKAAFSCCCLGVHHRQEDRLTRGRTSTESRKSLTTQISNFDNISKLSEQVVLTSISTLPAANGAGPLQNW

Row | Structure (SMILES) | IC50 [1] | IC50 [2]
1 | C[C@@H]1CC[C@@H](N(C)c2nccc3c2C(=O)OC3(C)C)CN1C(=O)c1ccccc1-n1ncnn1 [Example 45, 1,1-Dimethyl-4-{methyl[(3R,6R)-6-methyl-1-{[2-(2H-tetrazol-2-yl)phenyl]carbonyl}piperidin-3-yl]amino}furo[3,4-c]pyridin-3(1H)-one] | 0.127 µM | 9.33 µM
2 | C[C@@H]1OC(=O)c2c1ccnc2N[C@@H]1CC[C@@H](C)N(C(=O)c2ccccc2-n2nccn2)C1 [Example 46, (1S)-1-methyl-4-{[(3R,6R)-6-methyl-1-{[2-(2H-1,2,3-triazol-2-yl)phenyl]carbonyl}piperidin-3-yl]amino}furo[3,4-c]pyridin-3(1H)-one] | 0.028 µM | ≥ 10 µM
3 | C[C@@H]1CC[C@@H](Nc2nccc3c2C(=O)O[C@@H]3C)CN1C(=O)c1ccccc1-n1nccn1 [Example 47, (1R)-1-methyl-4-{[(3R,6R)-6-methyl-1-{[2-(2H-1,2,3-triazol-2-yl)phenyl]carbonyl}piperidin-3-yl]amino}furo[3,4-c]pyridin-3(1H)-one] | 0.035 µM | 7.26 µM
